Source: article PMC6152024 (Molecules : A Journal of Synthetic Chemistry and Natural …, 2017)

Columns and labels:
rat hepatic CYP3A = assay: Effect of Gom A pretreatment on rat hepatic CYP3A activity (liver microsomes from pretreated rats); type: in vivo; conditions: RLMs; for DCCTX production decrease compared with control group: CTX 100 ng/mL; for rat hepatic CYP3A activity, % of the control group activity: Tes 25 µM
Protocol: Rats were randomly divided into four groups (control group; pretreatment groups: 0.5 h group, 6 h group, 12 h group). Rats in control group and pretreatment groups were administrated (i.g.) with saline (2 mL/kg) and Gom A (20.8 mg/kg) respectively. In control group, rats were anesthetized 0.5 h after administration. In pretreatment groups, rats were anesthetized 0.5 h, 6 h, 12 h after Gom A pretreatment respectively. After anesthesia, the rat livers were infused with cool saline. After infusion, rats were euthanized and livers were collected. The liver microsomes were prepared using calcium precipitation method. Briefly, livers were weighted, washed with cool PBS (0.1 M), and then homogenized in cool Tris-PBS (50 mM Tris, w/v = 1:4). The mixture was centrifuged at 14,000 g for 20 min at 4 °C. The supernatant was mixed with CaCl2 solution (88 mM, vsupernantant/vCaCl2 = 10:1) and then centrifuged at 14,000 g for 20 min at 4 °C. The precipitate was resuspended in Tris-PBS and centrifuged (14,000 g, 4 °C, 20 min). Finally, the precipitate was resuspended in PBS containing 250 mM glucose, giving a concentration of 5 mg protein/mL. The prepared microsomes were stored at −80 °C until use.
To determine the effect of Gom A pretreatment on rat hepatic CYP3A activity, liver microsomes from control and pretreatment groups were incubated with Tes (25 µM) and CTX (100 ng/mL) respectively. The incubation procedures were similar with Section 4.3.1 and Section 4.3.4 for Tes and CTX incubation, respectively. For incubations using Tes, 0.5 mg/mL RLMs was incubated with 25 µM Tes in PBS (0.1 M) containing NADPH-gs at 37 °C in a total volume of 200 µL. After a 5 min warm up period, reactions were initiated with addition of NADPH-gs. Incubations were conducted at 37 °C for 10 min and then terminated by the addition of 200 µL ice-cold acetonitrile containing 18 ng/mL phenacetin (IS-I). For incubations using CTX, 0.5 mg/mL RLMs was incubated with 100 ng/mL CTX in PBS (0.1 M) containing NADPH-gs at 37 °C in a total volume of 200 µL. After a 5 min warm up period, reactions were initiated with addition of NADPH-gs. Incubations were conducted at 37 °C for 60 min and then terminated by the addition of 200 µL ice-cold acetonitrile containing 6 ng/mL of TNZ (IS-II).
After reaction termination, concentration of 6OH-Tes and DCCTX were determined.

hepatic CYP3A mRNA = assay: CYP3A expression assay (real-time PCR) in rat liver; type: in vivo; conditions: normalized to GAPDH
Protocol: Rats were randomly divided into four groups (groups A−D, n = 5), respectively. In brief, rats in group A (vehicle control group) were i.g. administered with saline (10 mL/kg), and were euthanized 72 h later. Rats in groups B−D were i.g. administered with Gom A at dose of 20.8 mg/kg (50 µmol/kg, same with pharmacokinetic study), and euthanized 24, 48 and 72 h respectively after Gom A treatment. After euthanization, rat livers were immediately collected, washed with ice-cold saline, and stored at −80 °C for CYP3A protein expression assay.
To determine CYP3A mRNA content in rat liver, the liver samples were homogenized and the total RNA was extracted from liver samples using RNeasy Mini Kit according to the manufacturer’s instructions (Qiagen). The concentration of total RNA was determined by UV spectra at 260/280 nm, and the purity was determined by calculating the ration of UV absorbance. 2 µg of total RNA in a total volume of 50 µL (1 µg/25 µL) was reverse transcribed into template cDNA using dNTP mix (1 mM), random primers (0.5 µg/mL), AMV RT (22 U/µL), MgCl2 (25 mM) and RT buffer (10×).
For qRT-PCR, forward and reverse primer sequences (Table 2) of CYP3A gene were used. In a Stratagene Mx3005P sequence detection system (Agilent Technologies Agilent, Santa Clara, CA, USA), 50 ng of cDNA/sample and 10 µM forward and reverse primers were added to a total reaction mixture of 20 µL of SYBR Select Master Mix (Invitrogen). GAPDH was applied as the house-keeping gene. All assays were performed in triplicate. […] The CYP3A mRNA levels of groups A−D were expressed as a ratio of induced to vehicle control group (group A).

CYP3A = CYP3A (Homo sapiens, UniProt P08684); assay: Reversible CYP3A inhibition, testosterone 6β-hydroxylation in human liver microsomes; type: in vitro ADME; conditions: HLMs, Lineweaver-Burk plot
Sequence of CYP3A (P08684 2-503): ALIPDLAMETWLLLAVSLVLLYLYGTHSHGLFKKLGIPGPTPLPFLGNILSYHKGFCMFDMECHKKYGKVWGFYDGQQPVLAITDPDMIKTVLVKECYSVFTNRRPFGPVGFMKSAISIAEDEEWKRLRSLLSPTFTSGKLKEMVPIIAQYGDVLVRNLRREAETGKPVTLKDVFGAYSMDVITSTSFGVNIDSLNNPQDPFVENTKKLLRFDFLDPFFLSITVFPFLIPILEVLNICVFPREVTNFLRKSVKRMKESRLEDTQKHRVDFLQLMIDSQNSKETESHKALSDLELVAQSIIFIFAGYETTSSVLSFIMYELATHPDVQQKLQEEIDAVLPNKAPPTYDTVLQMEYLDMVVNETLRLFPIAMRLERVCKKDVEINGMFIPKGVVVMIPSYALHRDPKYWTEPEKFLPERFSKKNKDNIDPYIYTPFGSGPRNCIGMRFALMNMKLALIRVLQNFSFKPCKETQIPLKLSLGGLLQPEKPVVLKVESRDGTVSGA
Protocol: A NADPH regenerating system (NADPH-gs, containing 10 mM glucose-6-phosphate, 5 mM magnesium chloride, 1 U/mL glucose-6-phosphate dehydrogenase and 1 mM NADP+) was constructed. The metabolite of Tes, 6OH-Tes, was assayed by UHPLC-MS method (I) for CYP3A activity assessment.
The CYP3A inhibition by Gom A was preliminarily evaluated. […] After a 5 min warm up period, reactions were initiated with addition of NADPH-gs. Incubations were conducted at 37 °C for 10 min and then terminated by the addition of 200 µL ice-cold acetonitrile containing 18 ng/mL phenacetin (IS-I). […] Incubations were processed and terminated as described earlier.
Pharmacokinetic profiles of CTX and DCCTX were estimated by one-compartmental model using the DAS 2.0 software ([…], Medical College of Wannan, Anhui, China). Data were expressed as mean ± SD. Comparisons between two groups were performed using one-way ANOVA followed by LSD test in the condition of variance homogeneity or Dunnett T3 test in the case of variance heterogeneity. […] IC50 values of Gom A were determined by nonlinear regression analysis using GraphPad Prism 5.01 software (GraphPad Software Inc., San Diego, CA, USA). The mode of inhibition was verified by Lineweaver-Burk plots of the enzyme kinetic data, and the KI value was determined by linear regression analysis with GraphPad Prism 5.01 (GraphPad Software Inc.). […]

[1] = 0.5 h after Gom A 20.8 mg/kg i.g.
[2] = 6 h after Gom A 20.8 mg/kg i.g.
[3] = 12 h after Gom A 20.8 mg/kg i.g.

Gomisin A [Gom A]
DCCTX production decrease compared with control group (rat hepatic CYP3A; [1]): 54.7% | rat hepatic CYP3A activity, % of the control group activity (rat hepatic CYP3A; [1]): 52.1% | DCCTX production decrease compared with control group (rat hepatic CYP3A; [2]): 52.0% | rat hepatic CYP3A activity, % of the control group activity (rat hepatic CYP3A; [2]): 37.3% | DCCTX production decrease compared with control group (rat hepatic CYP3A; [3]): 40.5% | rat hepatic CYP3A activity, % of the control group activity (rat hepatic CYP3A; [3]): 61.2% | hepatic CYP3A mRNA expression increase vs vehicle group (hepatic CYP3A mRNA; 24 h after single dose Gom A 20.8 mg/kg i.g.): 73 fold | hepatic CYP3A mRNA expression increase vs vehicle group (hepatic CYP3A mRNA; 48 h after single dose Gom A 20.8 mg/kg i.g.): 18 fold | hepatic CYP3A mRNA expression increase vs vehicle group (hepatic CYP3A mRNA; 72 h after single dose Gom A 20.8 mg/kg i.g.): 8 fold | mode of inhibition (CYP3A): competitive inhibitor
